Test results published in patent US20120301433A1, “BACTERIOPHAGES EXPRESSING AMYLOID PEPTIDES AND USES THEREOF” (priority 2009, published 2012).

Key:
CsgA [1] = target: T1, CsgA (Escherichia coli, UniProt P28307); assay type: biochemical; details: CsgA:inhibitor ratios, FIG. 9
CsgA [2] = target: T1, CsgA; details: 20-residue peptides on array
CsgA [3] = target: T1, CsgA; details: ThT fluorescence, FIG. 7E

T1 sequence (P28307 21-151): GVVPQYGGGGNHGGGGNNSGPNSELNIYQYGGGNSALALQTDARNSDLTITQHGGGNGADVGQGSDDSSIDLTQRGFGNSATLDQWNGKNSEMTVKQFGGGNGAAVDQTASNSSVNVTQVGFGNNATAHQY

Molecule | effect of small molecule inhibitors on curli amyloid fiber formation (in words) (CsgA [1]) | fluorescence of labelled CsgA bound to peptide spot (in words) (CsgA [2]) | nucleation of CsgA fiber assembly by plate-bound peptide (in words) (CsgA [3])
C[C@@H]1[C@H](O)[C@@H](C)/C=C/C=C/C=C/C=C/C=C/C=C/C=C/[C@H](O[C@@H]2O[C@H](C)[C@@H](O)[C@H](N)[C@@H]2O)C[C@@H]2O[C@](O)(C[C@@H](O)C[C@@H](O)[C@H](O)CC[C@@H](O)C[C@@H](O)CC(=O)O[C@H]1C)C[C@H](O)[C@H]2C(=O)O [AmphB, Amphotericin B] | does not inhibit Curli assembly | – | –
COc1ccc(Nc2cc3c(cc2Nc2ccc(OC)cc2)C(=O)NC3=O)cc1 [DAPH-12] | secetively inhibits Curli assembly | – | –
GTQKTAIVVQRQSQMAIRVT [CsgB130-149] | – | strongest signal | facilitated CsgA amyloid fiber formation with first-order kinetics
